From ChEMBL document CHEMBL1909294, “Translating clinical findings into knowledge in drug safety evaluation--drug induced liver injury prediction system (DILIps)” (PLoS Comput Biol, 2011)

Columns and labels:
[1] = tested on: Hepatotoxicity;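 as to HepSE bilirubinemia: bilirubinemia hepatic side effect score drawn from the DILIps training data, a prediction system for drug-induced liver injury; call rule not given here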;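 as to HepSE cholecystitis: Cholecystitis-related hepatic side effect score drawn from the DILIps (drug-induced liver injury prediction) training data set; call rule not given here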;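 as to HepSE cholelithiasis: hepatic side effect score for cholelithiasis, drawn from the DILIps training data for predicting drug-induced liver injury; call rule not given here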;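 as to HepSE cirrhosis: cirrhosis hepatic side effect score taken from the DILIps (drug-induced liver injury prediction) training set; call rule not given here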;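 as to HepSE elevated liver function tests: hepatic side effect score for raised liver function tests, as recorded in the DILIps training set used for predicting drug-induced liver injury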; as to HepSE hepatic failure: call rule not given here;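 as to HepSE hepatomegaly: hepatic side effect score for hepatomegaly, taken from the training set of the DILIps drug-induced liver injury prediction system; call rule not given here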
[2] = tested on: Hepatotoxicity; remark: listed apart in the source;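 as to HepSE bilirubinemia: bilirubinemia hepatic side effect score drawn from the DILIps training data, a prediction system for drug-induced liver injury; call rule not given here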;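 as to HepSE cholecystitis: Cholecystitis-related hepatic side effect score drawn from the DILIps (drug-induced liver injury prediction) training data set; call rule not given here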;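 as to HepSE cholelithiasis: hepatic side effect score for cholelithiasis, drawn from the DILIps training data for predicting drug-induced liver injury; call rule not given here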;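 as to HepSE cirrhosis: cirrhosis hepatic side effect score taken from the DILIps (drug-induced liver injury prediction) training set; call rule not given here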;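 as to HepSE elevated liver function tests: hepatic side effect score for raised liver function tests, as recorded in the DILIps training set used for predicting drug-induced liver injury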; as to HepSE hepatic failure: call rule not given here
[3] = tested on: Hepatotoxicity; remark: listed apart in the source;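 as to HepSE bilirubinemia: bilirubinemia hepatic side effect score drawn from the DILIps training data, a prediction system for drug-induced liver injury; call rule not given here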;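 as to HepSE cholecystitis: Cholecystitis-related hepatic side effect score drawn from the DILIps (drug-induced liver injury prediction) training data set; call rule not given here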;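 as to HepSE cholelithiasis: hepatic side effect score for cholelithiasis, drawn from the DILIps training data for predicting drug-induced liver injury; call rule not given here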;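 as to HepSE cirrhosis: cirrhosis hepatic side effect score taken from the DILIps (drug-induced liver injury prediction) training set; call rule not given here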;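 as to HepSE elevated liver function tests: hepatic side effect score for raised liver function tests, as recorded in the DILIps training set used for predicting drug-induced liver injury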; as to HepSE hepatic failure: call rule not given here
[4] = tested on: Hepatotoxicity; remark: listed apart in the source;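 as to HepSE bilirubinemia: bilirubinemia hepatic side effect score drawn from the DILIps training data, a prediction system for drug-induced liver injury; call rule not given here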;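 as to HepSE cholecystitis: Cholecystitis-related hepatic side effect score drawn from the DILIps (drug-induced liver injury prediction) training data set; call rule not given here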;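 as to HepSE cholelithiasis: hepatic side effect score for cholelithiasis, drawn from the DILIps training data for predicting drug-induced liver injury; call rule not given here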;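 as to HepSE cirrhosis: cirrhosis hepatic side effect score taken from the DILIps (drug-induced liver injury prediction) training set; call rule not given here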;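 as to HepSE elevated liver function tests: hepatic side effect score for raised liver function tests, as recorded in the DILIps training set used for predicting drug-induced liver injury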; as to HepSE hepatic failure: call rule not given here
[5] = tested on: Hepatotoxicity; remark: listed apart in the source; as to HepSE hepatic failure: call rule not given here
[6] = tested on: Hepatotoxicity; remark: listed apart in the source; as to HepSE hepatic failure: call rule not given here
[7] = tested on: Hepatotoxicity; remark: listed apart in the source
[8] = tested on: Hepatotoxicity; remark: listed apart in the source
[9] = tested on: Hepatotoxicity; remark: listed apart in the source
[10] = tested on: Hepatotoxicity; remark: listed apart in the source
[11] = tested on: Hepatotoxicity; remark: listed apart in the source
[12] = tested on: Hepatotoxicity; remark: listed apart in the source
[13] = tested on: Hepatotoxicity; remark: listed apart in the source
[14] = tested on: Hepatotoxicity; remark: listed apart in the source

Row | Structure (SMILES) | HepSE_bilirubinemia [1] | HepSE_cholecystitis [2] | HepSE_cholelithiasis [3] | HepSE_cirrhosis [4] | HepSE_elevated liver function tests [5] | HepSE_hepatic failure [6] | HepSE_hepatic necrosis [7] | HepSE_hepatitis [8] | HepSE_hepatomegaly [9] | HepSE_jaundice [10] | HepSE_liver disease [11] | HepSE_liver fatty [12] | HepSE_liver function tests abnormal [13] | HepSE_Combined Scores [14] | other results
1 | Nc1ccn([C@@H]2O[C@H](CO)[C@@H](O)C2(F)F)c(=O)n1 [GEMCITABINE] | 0 | 0 | 0 | 0 | 0 | 1 | 0 | 0 | 0 | 0 | 0 | 0 | 0 | 1 | –
2 | O=C(O)c1cc(-c2ccc(F)cc2F)ccc1O [DIFLUNISAL] | – | – | – | – | – | – | – | – | – | – | – | – | – | – | HepSE_bilirubinemia ([1]; Liver): 0; HepSE_cholecystitis ([2]; Liver): 0; HepSE_cholelithiasis ([3]; Liver): 0; HepSE_cirrhosis ([4]; Liver): 0; HepSE_elevated liver function tests ([5]; Liver): 0; HepSE_hepatic failure ([6]; Liver): 0; HepSE_hepatic necrosis ([7]; Liver): 0; HepSE_hepatitis ([8]; Liver): 1; HepSE_hepatomegaly ([9]; Liver): 0; HepSE_jaundice ([10]; Liver): 1; HepSE_liver disease ([11]; Liver): 0; HepSE_liver fatty ([12]; Liver): 0; HepSE_liver function tests abnormal ([13]; Liver): 0; HepSE_Combined Scores ([14]; Liver): 2
3 | CN1C2CCCC1CC(NC(=O)c1nn(C)c3ccccc13)C2 (stereo unspecified) [GRANISETRON] | 1 | 0 | 0 | 0 | 0 | 0 | 0 | 0 | 0 | 1 | 0 | 0 | 1 | 3 | –
4 | CC[C@H](C)C(=O)O[C@H]1C[C@H](O)C=C2C=C[C@H](C)[C@H](CC[C@@H](O)C[C@@H](O)CC(=O)O)[C@H]21 [PRAVASTATIN] | 0 | 0 | 0 | 1 | 0 | 0 | 1 | 1 | 0 | 1 | 0 | 0 | 0 | 4 | –
5 | O=C(O)c1ccc(-n2nc(-c3ccccc3O)nc2-c2ccccc2O)cc1 [DEFERASIROX] | 0 | 0 | 1 | 1 | 0 | 1 | 0 | 1 | 0 | 0 | 0 | 0 | 1 | 5 | –
6 | CS(=O)(=O)c1ccc(C2=C(c3ccccc3)C(=O)OC2)cc1 [ROFECOXIB] | 0 | 1 | 0 | 0 | 0 | 1 | 0 | 1 | 0 | 1 | 0 | 0 | 0 | 4 | –
7 | NS(=O)(=O)c1cc2c(cc1C(F)(F)F)NC(Cc1ccccc1)NS2(=O)=O (stereo unspecified) [BENDROFLUMETHIAZIDE] | 0 | 0 | 0 | 0 | 0 | 0 | 0 | 1 | 0 | 1 | 0 | 0 | 0 | 2 | –
8 | Nc1nc(/C(=C/CC(=O)O)C(=O)N[C@@H]2C(=O)N3C(C(=O)O)=CCS[C@H]23)cs1 [CEFTIBUTEN] | 0 | 0 | 0 | 0 | 0 | 0 | 0 | 0 | 0 | 1 | 0 | 0 | 0 | 1 | –
9 | C[C@]12CCC(=O)C=C1CC[C@@H]1[C@@H]2C(=O)C[C@@]2(C)[C@H]1CC[C@]2(O)C(=O)CO [CORTISONE] | 0 | 0 | 0 | 0 | 0 | 0 | 0 | 0 | 0 | 0 | 0 | 0 | 0 | 0 | –
